Assay results taken from patent US20260227397A1, “METHODS AND SYSTEMS OF PROFILING WITH BIOLOGICAL COMPUTING CELLS” (XENO CELL INNOVATIONS S.R.O., priority 2023, published 2026).

T1: alpha-factor, P01149
T1 chain: WHWLQLKPGQPMY

B1: BAR1 protease of BAR1 computing units (protein)
chain: LTNDGTGHLEFLLQHEEEMYYATTLDIGTPSQSLTVLFDTGSADFWVMDSSNPFCLPNSNTSSYSNATYNGEEVKPSIDCRSMSTYNEHRSSTYQYLENGRFYITYADGTFADGSWGTETVSINGIDIPNIQFGVAKYATTPVSGVLGIGFPRRESVKGYEGAPNEYYPNFPQILKSEKIIDVVAYSLFLNSPDSGTGSIVFGAIDESKFSGDLFTFPMVNEYPTIVDAPATLAMTIQGLGAQNKSSCEHETFTTTKYPVLLDSGTSLLNAPKVIADKMASFVNASYSEEEGIYILDCPVSVGDVEYNFDFGDLQISVPLSSLILSPETEGSYCGFAVQPTNDSMVLGDVFLSSAYVVFDLDNYKISLAQANWNASEVSKKLVNIQTDGSISGAKIATAEPWSTNEPFTVTSDIYSSTGCKSRPFLQSSTASSLIAETNVQSRNCSTKMPGTRSTTVLSKPTQNSAMHQSTGAVTQTSNETKLELSSTMANSGSVSLPTSNSIDKEFEHSKSQTTSDPSVAEHSTFNQTFVHETKYRPTHKTVITETVTKYSTVLINVCKPTY

Legend:
[1] = tested on: HaCaT (HCT, EpCAM+) cells; experiment: Cell-specific apoptosis rate in mixed HaCaT/Jurkat cell cultures (biocytometry readout); format: cell-based
Experimental: The presently described biocytometry was evaluated for measuring cell-specific apoptosis in mixed cell cultures. Despite the growing trend toward studying apoptosis in complex biological systems such as organoids and mixed cell cultures, conventional methods such as Caspase-based assays and MTT tests still yield limited sensitivity and quantify only aggregate apoptosis levels. To assess cell-specific apoptosis, mixed cultures of HaCaT (HCT, EpCAM+) and Jurkat (JUR, EpCAM−) cells at varied ratios (1:0 to 1:8) were utilized. Cells were cultured at a density of 40,000 cells/well in RPMI medium supplemented with 10% FBS and either subjected to 1 mM DTT treatment or left untreated. Following a 2.5-hour incubation at 37° C. in a 5% CO2 atmosphere, both total and apoptotic HaCaT cell counts were established using BIOS(EpCAM) and BIOS (EpCAM+PS), adhering to the biocytometry protocol. A noticeable reduction in total EpCAM+ cell count was evident in induced cell cultures, alongside an increase in the number of apoptotic EpCAM+ cells, aligning with the anticipated apoptotic changes (FIG. 12A). Apoptotic rates were calculated by normalizing BIOS(EpCAM+PS) counts to total cell counts from BIOS(EpCAM). […]

alpha-factor, P01149 = target: T1, alpha-factor, P01149

| Molecule | increase in apoptotic rates among EpCAM+ cells ([1]; 1 mM DTT vs untreated controls) [fold] | apoptotic rate among EpCAM+ cells ([1]; 1 mM DTT, 2.5-hour incubation at 37° C., 1.7% baseline in untreated controls) [%] | degradation of alpha-factor; activation threshold of the biosensors (alpha-factor, P01149) |
| --- | --- | --- | --- |
| O[C@@H](CS)[C@@H](O)CS [DTT] | 7.2 | 12.2 |  |
| B1 |  |  | effectively degraded alpha-factor, raising the activation threshold of the biosensors |
